Test results published in publication PMC11374673, “Discovery of isoquinoline sulfonamides as allosteric gyrase inhibitors with activity against fluoroquinolone-resistant bacteria” (Nature Chemistry, 2024).
≈ marks a conversion by molar mass, not a printed value. Where “and” joins values, the source holds several entries; their conditions need not be identical. Equal entries are not always repeated. Where two headings read alike, the source gives them in different places.

What was measured:
E. coli W3110 = assay: MIC by broth microdilution; format: cell-based, Escherichia coli; conditions: Escherichia coli, W3110, WT, broth microdilution; read-out: MIC E. coli W3110
Outline: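 Exponential-phase cultures (OD600 0.5, 37 °C aerobic), diluted 100-fold in CAMHB, were added to twofold compound dilution series. Keio strains grown with 50 µg ml^−1 kanamycin. Plates incubated overnight at 37 °C, shaking at 600 r.p.m.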

[1] = tested on: clinical isolates of E. coli; assay: MIC against clinical isolates and potentiation by 4 µM PMBN; format: cell-based, Escherichia coli; conditions: for MIC: Escherichia coli
Procedure: MIC was determined by broth microdilution. Single-colony cultures were grown to exponential phase (OD600 of 0.5) aerobically at 37 °C. In case of strains from the Keio collection, 50 µg ml^−1 kanamycin was supplemented to the media to ascertain a homogeneous population. The bacterial suspensions were diluted 100-fold in CAMHB and 50 µl was added to a twofold serial dilution series of test compounds (50 µl per well) in polypropylene 96-well microtitre plates to reach a volume of 100 µl. The plates were sealed with breathable membranes and incubated overnight at 37 °C with constant shaking (600 r.p.m.).

HEK293T = assay: Cytotoxicity assay (MTT); format: cell-based, human; conditions: for MTT data (raw readout): HEK293T; for IC50: 24 h, MTT
Outline: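 HEK293T cells, maintained at 37 °C and 7% CO2 in Dulbecco’s modified Eagle medium with GlutaMax, antibiotics and serum, were plated in clear 96-well plates in 100 µl medium containing 1% fetal bovine serum and left 24 h to attach. After 24 h compound exposure, MTT (0.40 mg ml^−1) was added for 2 h. Formazan was dissolved in 100 µl DMSO and absorbance measured at 570 nm. Background-corrected IC50 values came from variable-slope non-linear fits.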

HepG2 = assay: Cytotoxicity assay (MTT); format: cell-based, human; conditions: for IC50: MTT, 24 h

Q: `O=S(=O)(NC[C@@H]1CC[C@H](c2ccc(-c3cccnc3)cc2)N1)c1cccc2cnccc12` [LEI-800] was tested. Which MIC (E. coli W3110) did it give?
A: Its MIC is 3.1 µM (≈ 1.38 µg/mL).

Q: And the FC ([1]; E. coli 1075, fold change in MIC after 4 µM PMBN)?
A: The FC was over 4.

Q: What about the MSC ([1]; E. coli 1075, with 4 µM PMBN) of the same compound?
A: Its MSC is 12.5 µM.

Q: What about the FC ([1]; E. coli 552059.1, fold change in MIC after 4 µM PMBN) of the same compound?
A: Its FC is 32.

Q: What about the MSC ([1]; E. coli 552059.1, with 4 µM PMBN) of the same compound?
A: The MSC was 0.78 µM.

Q: What about the FC ([1]; E. coli 552060.1, fold change in MIC after 4 µM PMBN) of the same compound?
A: Its FC is 16.

Q: What about the MSC ([1]; E. coli 552060.1, with 4 µM PMBN) of the same compound?
A: Its MSC is 1.5 µM.

Q: And the FC ([1]; E. coli MVAST0072, fold change in MIC after 4 µM PMBN)?
A: The FC was 16.

Q: What about the MSC ([1]; E. coli MVAST0072, with 4 µM PMBN) of the same compound?
A: The MSC was 1.5 µM.

Q: What about the FC ([1]; E. coli NCTC13463, fold change in MIC after 4 µM PMBN) of the same compound?
A: Its FC is 8.

Q: And the MSC ([1]; E. coli NCTC13463, with 4 µM PMBN)?
A: The MSC was 0.4 µM.

Q: What about the FC ([1]; E. coli NCTC13846, fold change in MIC after 4 µM PMBN) of the same compound?
A: Its FC is 4.

Q: What about the MSC ([1]; E. coli NCTC13846, with 4 µM PMBN) of the same compound?
A: The MSC was 12.5 µM.

Q: What about the FC ([1]; E. coli mcr-1, fold change in MIC after addition of 4 µM PMBN) of the same compound?
A: Its FC is 4.

Q: What about the MSC ([1]; E. coli mcr-1, with 4 µM PMBN) of the same compound?
A: The MSC was 6.25 µM.

Q: And the MIC ([1]; CIP-resistant isolate 965 (MDR))?
A: Its MIC is 12.5 µM.

Q: What about the MIC ([1]; CIP-resistant isolate 991, read-out: MIC) of the same compound?
A: Its MIC is 25 µM.

Q: What about the MIC ([1]; CIP-resistant isolate 1022 (ESBL), read-out: MIC) of the same compound?
A: The MIC was 25 µM.

Q: And the MIC ([1]; CIP-resistant isolate 1104 (MDR), read-out: MIC)?
A: The MIC was 25 µM.

Q: What about the MIC ([1]; CIP-resistant isolate 1146 (MDR)) of the same compound?
A: Its MIC is 6.25 µM.

Q: And the MIC ([1]; CIP-resistant isolate 1175 (MDR), read-out: MIC)?
A: The MIC was 25 µM.

Q: And the MIC ([1]; CIP-resistant isolate 1192 (MDR), read-out: MIC)?
A: The MIC was 50 µM.

Q: And the MIC ([1]; CIP-resistant isolate 1201 (MDR))?
A: Its MIC is 12.5 µM.

Q: What about the MIC ([1]; CIP-resistant isolate 1233, read-out: MIC) of the same compound?
A: Its MIC is 12.5 µM.

Q: And the MIC ([1]; E. coli 1075 (MDR), read-out: MIC)?
A: The MIC was over 50 µM.

Q: And the MIC ([1]; E. coli 552059.1, read-out: MIC)?
A: The MIC was 25 µM.

Q: And the MIC ([1]; E. coli 552060.1, read-out: MIC)?
A: Its MIC is 25 µM.

Q: What about the MIC ([1]; E. coli MVAST0072 (MDR), read-out: MIC) of the same compound?
A: The MIC was 25 µM.

Q: What about the MIC ([1]; NCTC13463, E. coli NCTC13463 (ESBL), read-out: MIC) of the same compound?
A: Its MIC is 3.1 µM.

Q: And the MIC ([1]; NCTC13846, E. coli NCTC13846 (MDR, mcr-1))?
A: The MIC was 50 µM.

Q: And the FC ([1]; isolate 965, fold-change in MIC)?
A: Its FC is 16.

Q: And the MSC ([1]; isolate 965, with 4 μM PMBN)?
A: Its MSC is 0.8 µM.

Q: What about the FC ([1]; isolate 991, fold-change in MIC) of the same compound?
A: Its FC is 8.

Q: And the MSC ([1]; isolate 991, with 4 μM PMBN)?
A: The MSC was 3.1 µM.

Q: And the FC ([1]; isolate 1022, fold-change in MIC)?
A: Its FC is 16.

Q: And the MSC ([1]; isolate 1022, with 4 μM PMBN)?
A: Its MSC is 1.6 µM.

Q: What about the FC ([1]; isolate 1104, fold-change in MIC) of the same compound?
A: Its FC is 16.

Q: What about the MSC ([1]; isolate 1104, with 4 μM PMBN) of the same compound?
A: The MSC was 1.6 µM.

Q: What about the FC ([1]; isolate 1146, fold-change in MIC) of the same compound?
A: The FC was 8.

Q: What about the MSC ([1]; isolate 1146, with 4 μM PMBN) of the same compound?
A: The MSC was 0.8 µM.

Q: What about the FC ([1]; isolate 1175, fold-change in MIC) of the same compound?
A: The FC was 8.

Q: And the MSC ([1]; isolate 1175, with 4 μM PMBN)?
A: Its MSC is 3.1 µM.

Q: And the FC ([1]; isolate 1192, fold-change in MIC)?
A: The FC was 16.

Q: And the MSC ([1]; isolate 1192, with 4 μM PMBN)?
A: Its MSC is 3.1 µM.

Q: And the FC ([1]; isolate 1201, fold-change in MIC)?
A: The FC was 8.

Q: And the MSC ([1]; isolate 1201, with 4 μM PMBN)?
A: Its MSC is 1.6 µM.

Q: What about the FC ([1]; isolate 1233, fold-change in MIC) of the same compound?
A: The FC was 8.

Q: And the MSC ([1]; isolate 1233, with 4 μM PMBN)?
A: Its MSC is 1.6 µM.

Q: What about the “MTT data (raw readout)” value (HEK293T; 0.023 uM, experiment n = 1, technical triplicates, listed as LEI-800 (102)) of the same compound?
A: Its value is 1.514 and 1.430 and 1.503.

Q: What about the “MTT data (raw readout)” value (HEK293T; 0.023 uM, experiment n = 2, technical triplicates, listed as LEI-800 (102)) of the same compound?
A: Its value is 0.881 and 0.910 and 1.010.

Q: What about the “MTT data (raw readout)” value (HEK293T; 0.068 uM, experiment n = 1, technical triplicates, listed as LEI-800 (102)) of the same compound?
A: Its value is 1.213 and 1.245 and 1.353.

Q: And the “MTT data (raw readout)” value (HEK293T; 0.068 uM, experiment n = 2, technical triplicates, listed as LEI-800 (102))?
A: Its value is 0.864 and 0.913 and 1.008.

Q: And the “MTT data (raw readout)” value (HEK293T; 0.21 uM, experiment n = 1, technical triplicates, listed as LEI-800 (102))?
A: Its value is 1.179 and 1.313 and 1.432.

Q: What about the “MTT data (raw readout)” value (HEK293T; 0.21 uM, experiment n = 2, technical triplicates, listed as LEI-800 (102)) of the same compound?
A: Its value is 0.911 and 0.971 and 1.136.

Q: And the “MTT data (raw readout)” value (HEK293T; 0.62 uM, experiment n = 1, technical triplicates, listed as LEI-800 (102))?
A: The value was 1.153 and 1.305 and 1.537.

Q: And the “MTT data (raw readout)” value (HEK293T; 0.62 uM, experiment n = 2, technical triplicates, listed as LEI-800 (102))?
A: The value was 0.849 and 0.899 and 1.012.

Q: What about the “MTT data (raw readout)” value (HEK293T; 1.85 uM, experiment n = 1, technical triplicates, listed as LEI-800 (102)) of the same compound?
A: The value was 1.133 and 1.157 and 1.398.

Q: And the “MTT data (raw readout)” value (HEK293T; 1.85 uM, experiment n = 2, technical triplicates, listed as LEI-800 (102))?
A: The value was 0.878 and 0.935 and 1.030.

Q: And the IC50 (HEK293T; Homo sapiens, HEK-293T)?
A: The IC50 was 65 µM.

Q: What about the IC50 (HEK293T; listed as LEI-800 (102)) of the same compound?
A: Its IC50 is over 50 µM.

Q: What about the “MTT data (raw readout)” value (HepG2; HepG2, 0.023 uM, experiment n = 1, technical triplicates, listed as LEI-800 (102)) of the same compound?
A: The value was 0.404 and 0.388 and 0.378.

Q: What about the “MTT data (raw readout)” value (HepG2; HepG2, 0.023 uM, experiment n = 2, technical triplicates, listed as LEI-800 (102)) of the same compound?
A: Its value is 0.268 and 0.286 and 0.353.

Q: What about the “MTT data (raw readout)” value (HepG2; HepG2, 0.068 uM, experiment n = 1, technical triplicates, listed as LEI-800 (102)) of the same compound?
A: Its value is 0.391 and 0.379 and 0.435.

Q: And the “MTT data (raw readout)” value (HepG2; HepG2, 0.068 uM, experiment n = 2, technical triplicates, listed as LEI-800 (102))?
A: The value was 0.250 and 0.293 and 0.379.

Q: And the “MTT data (raw readout)” value (HepG2; HepG2, 0.21 uM, experiment n = 1, technical triplicates, listed as LEI-800 (102))?
A: Its value is 0.377 and 0.445 and 0.431.

Q: What about the “MTT data (raw readout)” value (HepG2; HepG2, 0.21 uM, experiment n = 2, technical triplicates, listed as LEI-800 (102)) of the same compound?
A: The value was 0.243 and 0.281 and 0.327.

Q: And the “MTT data (raw readout)” value (HepG2; HepG2, 0.62 uM, experiment n = 1, technical triplicates, listed as LEI-800 (102))?
A: Its value is 0.371 and 0.373 and 0.384.

Q: And the “MTT data (raw readout)” value (HepG2; HepG2, 0.62 uM, experiment n = 2, technical triplicates, listed as LEI-800 (102))?
A: Its value is 0.248 and 0.278 and 0.343.

Q: What about the “MTT data (raw readout)” value (HepG2; HepG2, 1.85 uM, experiment n = 1, technical triplicates, listed as LEI-800 (102)) of the same compound?
A: Its value is 0.402 and 0.403 and 0.424.

Q: What about the “MTT data (raw readout)” value (HepG2; HepG2, 1.85 uM, experiment n = 2, technical triplicates, listed as LEI-800 (102)) of the same compound?
A: The value was 0.281 and 0.293 and 0.337.

Q: What about the IC50 (HepG2; Homo sapiens, HepG2, 24 h) of the same compound?
A: Its IC50 is over 100 µM.

Q: And the IC50 (HepG2; listed as LEI-800 (102))?
A: The IC50 was over 50 µM.
